Assays:
PC12-ND6 cells [1] = assay: Neurite outgrowth with sub-optimal NGF (10 ng/ml); type: cell-based
Procedure: FIG. 13A-13E are images from microscopy and graphs showing that the timing of NaBt treatment is critical for enhancing neuronal differentiation of PC12-ND6 cells upon sub-optimal neurotrophic cues. (A) Confocal micrographs of PC12-ND6 cells treated with dbcAMP alone or with NaBt (5 mM) in a simultaneous or sequential manner. Scale bar represents 5 μm. (B) Graph of neurite length. Mean±SEM (n=50 for each condition; compared to control (no NaBt) *p=0.0001 and **p=0.0009). (C) Confocal micrographs of PC12-ND6 cells treated with sub-optimal NGF concentration (10 ng/ml) alone or first NaBt (5 mM) in a simultaneous or sequential manner. Scale bar represents 10 μm. (D) Graph of average total neurite length. Mean±SEM (n=50 for each condition; compared to control *p=0.0001). (E) Graph of the frequency of total neurite length below and above 90 μm.
NaBt-mediated modulation of the neuronal potential of PC12-ND6 cells in the context of sub-optimal NGF concentration (10 ng/ml) was further investigated. Transfected PC12-ND6 cells were first treated with NaBt (5 mM) for three days prior to NGF exposure (10 ng/ml). A time course analysis of neurite outgrowth was conducted during the first two days of NGF exposure by live-cell confocal microscopy. […] Such trend of neurite extension was maintained at day 2 of NGF exposure with NaBt-pre-treated or co-treated PC12-ND6 cells. Whether NaBt added concomitantly with NGF (10 ng/ml) could mediate increased neuritogenesis was also assessed.

MELAS fibroblasts = assay: Relative cellular ATP levels (magnesium green dye); type: cell-based, human
Procedure: FIG. 19 is a graph showing that NaBt augments the relative cellular ATP levels in MELAS fibroblasts. The relative cellular ATP content was examined by a fluorescent probe, magnesium green (Mg Gr). MELAS fibroblasts were treated for 6 and 24 hours with NaBt (2.5 m M) before being labeled with Mg-Gr.
To assess relative cellular ATP levels in live MELAS fibroblasts, the fluorescent magnesium green (Mg-Gr) dye, which has been successfully employed in live patient fibroblasts, was used. Fluorescence emission from the Mg-Gr dye is directly proportional to the concentration of intracellular free Mg2+ concentration. Since the affinity of Mg2+ for ATP is about ten times higher than its affinity for ADP or AMP, the fluorescence intensity is inversely correlated with the intracellular levels of ATP. A time course exposure to NaBt ([…]) was performed using MELAS fibroblasts from one patient that has been comprehensively evaluated in terms of mitochondrial mass, mitochondrial membrane potential, and mitochondrial dynamics and networking (FIGS. 17 and 18). […] Thus, butyrates augment the functional mitochondrial mass in dermal MELAS fibroblasts, thereby reversing their deficits in mitochondrial mass and bioenergetics capacity.

[2] = system: E17.5 hippocampal progenitor cells; assay: Neuronal differentiation to stage 3 (β-III tubulin immunostaining); type: cell-based; settings: NaBt 2 mM at 1DIV, read at 3DIV, no glial feeder layer; untreated 20%
Text: FIG. 12A-12B are images from microscopy and a graph showing that NaBt concomitantly increases the mitochondrial biomass of E17.5 hippocampal progenitor cells and their neuronal differentiation. (A) High-resolution tile-stacked confocal micrographs of untreated and NaBt-treated E17.5 hippocampal neurons labeled with β-III tubulin (red) and nuclear counterstain DAPI (blue) at 3DIV with insets showing high magnification of the neuritic network. Scale bar represents 20 μm. (B) Graph of percent of β-III tubulin^+ cells having reached the neuronal stage 3. Mean±S.D. (n=250 cells for each condition; *p=0.0001).
Sodium butyrate-mediated increase in mitochondrial mass correlates with accelerated and enhanced neuronal differentiation of hippocampal progenitor cells. Since broad spectrum HDACis induce neuronal differentiation of adult neural progenitors (reviewed by Lee and Lee, 2010), it was assessed whether increase in mitochondrial mass upon NaBt exposure could accelerate the timing of the neuronal developmental stages of cultured E17.5 hippocampal progenitor cells in the absence of astroglial trophic support. To test this hypothesis, the well-defined chronology of the distinct phenotypic differentiation stages of cultured embryonic hippocampal cells was relied on. […] At 3DIV, cells were immunostained for the pan-neuronal marker β-III tubulin to quantify the percent of cells at stage 3.

PC12-ND6 cells [3] = assay: NaBt dose-dependent acetylation of nuclear proteins (anti-acetylated Lys immunocytochemistry); type: cell-based; settings: three days, 2, 5 and 10 mM tested
Text: FIG. 4A-4E are images from microscopy and graphs showing NaBt dose-dependent acetylation and cellular toxicity in PC12-ND6 cells and embryonic E17.5 hippocampal neurons. (A) Confocal micrographs of PC12-ND6 cells (referred to as ND6) grown in the absence or presence of NaBt for three days and labeled with an anti-acetylated Lys antibody (AcLys; green). Scale bar represents 10 μm. […] Results are expressed as relative fluorescence intensity±S.D. (n=250 cells per NaBt concentration; * p=0.0001). (C) Effect of NaBt on PC12-ND6 cell viability. […] Mean±SEM (n=250 cells for each experimental condition; * p=0.0001). (D) Confocal micrographs of NaBt dose-dependent acetylation in E17.5 hippocampal neurons (AcLys; green). Scale bar represents 10 μm.
Sodium butyrate increases protein acetylation in a dose-dependent manner without inducing cellular toxicity. A dose response analysis was performed to determine the optimal concentration of sodium butyrate (NaBt) for inducing maximal acetylation levels with minimal cellular toxicity. PC12-ND6 cells were treated with different concentrations of NaBt (2 mM, 5 mM, and 10 mM) for three days before assessing the degree of acetylated lysine residues by immunocytochemistry and cell viability by live-cell confocal microscopy using the Nuclear-ID™ stain.

In the case of CCCC(=O)[O-].[Na+] [NaBt, sodium butyrate], the “neurite outgrowth, NaBt and NGF administered simultaneously” value (PC12-ND6 cells [1]; NGF 10 ng/ml) is reported as “No synergistic effect”, the “average total neurite length” value (PC12-ND6 cells [1]; NaBt 5 mM three days pre-treatment, 24 hours NGF 10 ng/ml, control 60 μm) is reported as 168 μm and the “percent of neurites longer than 90 μm” value (PC12-ND6 cells [1]; NaBt pre-treated, NGF 10 ng/ml, control 16%) is reported as 79%. For the same compound, the “relative cellular ATP levels” value (MELAS fibroblasts; 24 hours NaBt 2.5 mM) was “became more accentuated”, the “relative cellular ATP levels” value (MELAS fibroblasts; first 24 hours of NaBt (2.5 mM) treatment) was “steady increase in relative cellular ATP levels” and the “relative cellular ATP levels” value (MELAS fibroblasts; six hours NaBt 2.5 mM) was “increase in relative cellular ATP levels”. The “percent of neurons advanced to stage 3” value [2] was 90% and the “NaBt concentration showing maximal acetylation levels of nuclear proteins” value (PC12-ND6 cells [3]) was 5 mM.
